According to patent publication US20090253669A1, “Substituted Sulfonamide Compounds” (GRUENENTHAL GmbH, priority 2008, published 2009):

Columns and labels:
[1] = target: T1, human B1R receptor (hB1R) (Homo sapiens, UniProt P46663); experiment: FLIPR Ca2+ assay on hB1R-transfected CHO K1 cells, antagonistic action; assay type: cell-based; conditions: CHO-K1, 10 μM test substance; agonist Lys-Des-Arg9-bradykinin 0.5 nM; % of maximum achievable inhibition; read-out: hB1R [10 μM] % inhibition
T1 construct: host or cells: CHO K1 cells
T1 sequence (P46663 1-353): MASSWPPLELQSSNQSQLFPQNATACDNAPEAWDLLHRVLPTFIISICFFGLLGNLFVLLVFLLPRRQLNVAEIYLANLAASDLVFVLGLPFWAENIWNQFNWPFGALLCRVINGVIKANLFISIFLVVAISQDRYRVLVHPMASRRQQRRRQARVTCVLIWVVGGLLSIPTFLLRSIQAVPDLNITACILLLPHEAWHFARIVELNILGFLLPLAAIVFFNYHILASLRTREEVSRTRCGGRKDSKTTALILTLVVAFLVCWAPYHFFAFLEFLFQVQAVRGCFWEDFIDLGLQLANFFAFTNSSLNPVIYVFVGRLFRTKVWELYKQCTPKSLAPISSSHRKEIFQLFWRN

[2] = target: T2, B1R receptor of the rat (rB1R) (Rattus norvegicus, UniProt P97583); experiment: FLIPR Ca2+ assay on rB1R-transfected CHO K1 cells, antagonistic action; assay type: cell-based; conditions: CHO-K1, 10 μM test substance; agonist Des-Arg9-bradykinin 100 nM; % of maximum achievable inhibition; read-out: rB1R [10 μM] % inhibition
T2 construct: host or cells: CHO K1 cells
T2 sequence (P97583 1-337): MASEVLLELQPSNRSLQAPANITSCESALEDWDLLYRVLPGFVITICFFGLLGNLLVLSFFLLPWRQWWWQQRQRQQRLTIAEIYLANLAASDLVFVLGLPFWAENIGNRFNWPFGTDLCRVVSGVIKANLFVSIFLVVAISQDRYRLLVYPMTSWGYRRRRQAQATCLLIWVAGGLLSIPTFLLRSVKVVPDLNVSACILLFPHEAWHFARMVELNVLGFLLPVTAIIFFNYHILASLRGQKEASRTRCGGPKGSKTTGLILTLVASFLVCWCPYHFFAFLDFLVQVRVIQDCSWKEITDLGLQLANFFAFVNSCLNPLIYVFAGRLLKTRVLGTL

SMILES | inhibition at 10 µM [1] | inhibition at 10 µM [2]
COc1cc(C)c(S(=O)(=O)N2CCCCC2COCC(=O)N(C)CCCC2CCC(c3ccccc3)(N(C)C)CC2)c(C)c1 (stereo not shown) [Compound 203, N-(3-(4-(dimethylamino)-4-phenylcyclohexyl)propyl)-2-((1-(4-methoxy-2,6-dimethylphenylsulfonyl)piperidin-2-yl)methoxy)-N-methylacetamide] | 99% | 98%
CN1CCN(C2(c3ccccc3)CCN(C(=O)CC3CCCCN3S(=O)(=O)c3cccc(C(F)(F)F)c3)CC2)CC1 (stereo not shown) [Compound 64, 1-(4-(4-methylpiperazin-1-yl)-4-phenylpiperidin-1-yl)-2-(1-(3-(trifluoromethyl)phenylsulfonyl)piperidin-2-yl)ethanone] | 84% | 100%
Cc1cc(C)c(S(=O)(=O)N2CCC(OCC(=O)NC3CCC(CCc4ccccc4)(N(C)C)CC3)C2)c(C)c1 (stereo not shown) [Compound 29, N-(4-(dimethylamino)-4-phenethylcyclohexyl)-2-(1-(mesitylsulfonyl)pyrrolidin-3-yloxy)acetamide] | 61% | 46%
O=C(CC1CCCCN1S(=O)(=O)c1cccc(C(F)(F)F)c1)N1CCC(c2ccccc2)(N2CCN(c3ccncc3)CC2)CC1 (stereo not shown) [Compound 113, 1-(4-phenyl-4-(4-(pyridin-4-yl)piperazin-1-yl)piperidin-1-yl)-2-(1-(3-(trifluoromethyl)phenylsulfonyl)piperidin-2-yl)ethanone] | 79% | 74%
COc1cc(C)c(S(=O)(=O)N(C)CCOCC(=O)NCC2CCC(Cc3ccccc3)(N3CCOCC3)CC2)c(C)c1 (stereo not shown) [Compound 188, N-((4-benzyl-4-morpholinocyclohexyl)methyl)-2-(2-(4-methoxy-N,2,6-trimethylphenylsulfonamido)ethoxy)acetamide] | 95% | 63%
Cc1cc(S(=O)(=O)N2CCCCC2CCC(=O)N(C)CC2CCC(c3ccccc3)(N3CCCC3)CC2)c(C)cc1Cl (stereo not shown) [Compound 140, 3-(1-(4-chloro-2,5-dimethylphenylsulfonyl)piperidin-2-yl)-N-methyl-N-((4-phenyl-4-(pyrrolidin-1-yl)cyclohexyl)methyl)propanamide] | 103% | 21%
COc1cc(C)c(S(=O)(=O)N2CCCC(OCC(=O)NC3CCC(c4ccccc4)(N4CCCC4)CC3)C2)c(C)c1 (stereo not shown) [Compound 176, 2-(1-(4-methoxy-2,6-dimethylphenylsulfonyl)piperidin-3-yloxy)-N-(4-phenyl-4-(pyrrolidin-1-yl)cyclohexyl)acetamide] | 89% | 77%
CN(CCC1CCC(Cc2ccccc2)(N(C)C)CC1)C(=O)COCC1CCc2ccccc2N1S(=O)(=O)c1ccc(Cl)c(Cl)c1 (stereo not shown) [Compound 61, N-(2-(4-benzyl-4-(dimethylamino)cyclohexyl)ethyl)-2-((1-(3,4-dichlorophenylsulfonyl)-1,2,3,4-tetrahydroquinolin-2-yl)methoxy)-N-methylacetamide] | 49% | 100%
COc1cc(C)c(S(=O)(=O)N(C)CCOCC(=O)N(C)CCC2CCC(CCc3ccccc3)(N(C)C)CC2)c(C)c1 (stereo not shown) [Compound 52, N-(2-(4-(dimethylamino)-4-phenethylcyclohexyl)ethyl)-2-(2-(4-methoxy-N,2,6-trimethylphenylsulfonamido)ethoxy)-N-methylacetamide] | 104% | 100%
COc1cc(C)c(S(=O)(=O)N2CCCCC2COCC(=O)N(C)CC2CCC(CCc3ccccc3)(N3CCCC3)CC2)c(C)c1 (stereo not shown) [Compound 51, 2-((1-(4-methoxy-2,6-dimethylphenylsulfonyl)piperidin-2-yl)methoxy)-N-methyl-N-((4-phenethyl-4-(pyrrolidin-1-yl)cyclohexyl)methyl)acetamide] | 102% | 100%
Cc1cc(S(=O)(=O)N2CCCCC2CCC(=O)N(C)CCC2CCC(CCc3ccccc3)(N(C)C)CC2)c(C)cc1Cl (stereo not shown) [Compound 132, 3-(1-(4-chloro-2,5-dimethylphenylsulfonyl)piperidin-2-yl)-N-(2-(4-(dimethylamino)-4-phenethylcyclohexyl)ethyl)-N-methylpropanamide] | 103% | 43%
COc1cc(C)c(S(=O)(=O)N2CCC(OCC(=O)N3CCC(c4cccc(F)c4)(N4CCN(C)CC4)CC3)C2)c(C)c1 (stereo not shown) [Compound 217, 1-(4-(3-Fluorophenyl)-4-(4-methylpiperazin-1-yl)piperidin-1-yl)-2-(1-(4-methoxy-2,6-dimethylphenylsulfonyl)pyrrolidin-3-yloxy)ethanone] | 100% | 98%
Cc1cc(S(=O)(=O)N2CCCCC2CCC(=O)N2CCC(c3ccccc3)(N(C)C)CC2)c(C)cc1Cl (stereo not shown) [Compound 123, 3-(1-(4-chloro-2,5-dimethylphenylsulfonyl)piperidin-2-yl)-1-(4-(dimethylamino)-4-phenylpiperidin-1-yl)propan-1-one] | 103% | 60%
COc1cc(C)c(S(=O)(=O)N(C)CCOCC(=O)NC2CCC(c3ccccc3)(N3CCCC3)CC2)c(C)c1 (stereo not shown) [Compound 150, 2-(2-(4-methoxy-N,2,6-trimethylphenylsulfonamido)ethoxy)-N-(4-phenyl-4-(pyrrolidin-1-yl)cyclohexyl)acetamide] | 102% | 104%
COc1cc(C)c(S(=O)(=O)N2CCC(OCC(=O)N(C)CC3CCC(CCc4ccccc4)(N4CCN(C)CC4)CC3)C2)c(C)c1 (stereo not shown) [Compound 177, 2-(1-(4-methoxy-2,6-dimethylphenylsulfonyl)pyrrolidin-3-yloxy)-N-methyl-N-((4-(4-methylpiperazin-1-yl)-4-phenethylcyclohexyl)methyl)acetamide] | 103% | 76%
CN1CCN(C2(Cc3ccccc3)CCC(CN(C)C(=O)COCC3CCCN3S(=O)(=O)c3c(Cl)cc(Cl)cc3Cl)CC2)CC1 (stereo not shown) [Compound 168, N-((4-benzyl-4-(4-methylpiperazin-1-yl)cyclohexyl)methyl)-N-methyl-2-((1-(2,4,6-trichlorophenylsulfonyl)pyrrolidin-2-yl)methoxy)acetamide] | 88% | 88%
CN1CCN(C2(Cc3ccccc3)CCC(CN(C)C(=O)COC3CCCN(S(=O)(=O)c4c(Cl)cc(Cl)cc4Cl)C3)CC2)CC1 (stereo not shown) [Compound 175, N-((4-benzyl-4-(4-methylpiperazin-1-yl)cyclohexyl)methyl)-N-methyl-2-(1-(2,4,6-trichlorophenylsulfonyl)piperidin-3-yloxy)acetamide] | 97% | 77%
COc1cc(C)c(S(=O)(=O)N2CCCC(COCC(=O)NC3CCC(Cc4ccccc4)(N4CCCC4)CC3)C2)c(C)c1 (stereo not shown) [Compound 180, N-(4-benzyl-4-(pyrrolidin-1-yl)cyclohexyl)-2-((1-(4-methoxy-2,6-dimethylphenylsulfonyl)piperidin-3-yl)methoxy)acetamide] | 71% | 73%
CN(CCC1CCC(CCc2ccccc2)(N(C)C)CC1)C(=O)CC1CCCCN1S(=O)(=O)c1cccc(C(F)(F)F)c1 (stereo not shown) [Compound 76, N-(2-(4-(dimethylamino)-4-phenethylcyclohexyl)ethyl)-N-methyl-2-(1-(3-(trifluoromethyl)phenylsulfonyl)piperidin-2-yl)acetamide] | 98% | 99%
CN1CCN(C2(c3ccc(F)cc3)CCN(C(=O)COCC3CCc4ccccc4N3S(=O)(=O)c3ccc(Cl)c(Cl)c3)CC2)CC1 (stereo not shown) [Compound 126, 2-((1-(3,4-dichlorophenylsulfonyl)-1,2,3,4-tetrahydroquinolin-2-yl)methoxy)-1-(4-(4-fluorophenyl)-4-(4-methylpiperazin-1-yl)piperidin-1-yl)ethanone] | 87% | 55%
COc1cc(C)c(S(=O)(=O)N2CCCCC2COCC(=O)N2CCC(Cc3ccccc3)(N(C)C)CC2)c(C)c1 (stereo not shown) [Compound 65, 1-(4-benzyl-4-(dimethylamino)piperidin-1-yl)-2-((1-(4-methoxy-2,6-dimethylphenylsulfonyl)piperidin-2-yl)methoxy)ethanone] | 104% | 100%
CN(C)C1(Cc2ccccc2)CCN(C(=O)CC2CCCCN2S(=O)(=O)c2cccc(C(F)(F)F)c2)CC1 (stereo not shown) [Compound 97, 1-(4-benzyl-4-(dimethylamino)piperidin-1-yl)-2-(1-(3-(trifluoromethyl)phenylsulfonyl)piperidin-2-yl)ethanone] | 102% | 91%
COc1cc(C)c(S(=O)(=O)N(C)CCOCC(=O)N2CCC(c3ccccc3)(N(C)C)CC2)c(C)c1 [Compound 54, N-(2-(2-(4-(dimethylamino)-4-phenylpiperidin-1-yl)-2-oxoethoxy)ethyl)-4-methoxy-N,2,6-trimethylbenzenesulfonamide] | 103% | 100%
